Experiments:
Beagle dog = assay: Single-dose toxicity, Beagle dog; assay type: in vivo; settings: Oral, Days 1, 5, 9, 13
Text: (§1) Various toxicology studies have been performed. All studies were GLP-compliant unless otherwise noted.

OATP1B1 = biological target: T1, OATP1B1 (Homo sapiens, UniProt Q9Y6L6); assay: Drug transporter inhibition, OATP1B1; assay type: in vitro ADME; settings: 100 nM [3H] estrone-3-sulfate; transfected HEK-293 cells
T1 construct: expressed in transfected cells; host or cells: HEK-293
Protocol: (§2) This study examined the potential of EC-18 to interact with the transporter proteins that have been known to be involved in the absorption of commercially available drugs. EC-18 was pre-incubated with HEK-293 cells and LLC-PK1 cells that were transfected with the genes of most drug transporters as follows: OATP1B1, OATP1B3, OAT1, OAT3 and OCT2, and BCRP and P-gp, respectively.

[1] = In vitro plasma stability, rat plasma; assay type: in vitro ADME; settings: Rats; 1 μM; 37° C.; n=3
Protocol: To assess the stability of EC-18 in plasma, the test material, or the standard reference material (test concentration 1 μM) was mixed with rat and human plasma and allowed to react for 1 hr at 37° C. Then, the residual EC-18 concentration was measured by LC-MS/MS. As standard reference materials, albendazole (a drug with high plasma stability) and vinpocetine (a drug with low plasma stability) were tested in parallel. When allowed to react with rat and human plasma for 1 hr, the residual EC-18 concentration in both rat and human plasma was >99% of the initial dose.

SD rat = assay: Immunotoxicity study (splenic blastogenesis response test); assay type: in vivo; settings: Oral; 4 weeks
Text: as §1

Balb/c mice, 6.11 Gy TBI = assay: Structural analog / calorie effect study: EC-18, PLH, olive oil in 6.11 Gy ARS model; assay type: in vivo, mouse; settings: 250 mg/kg daily
Protocol: Similarly, a structural analog efficacy study was conducted to identify the optimally functional molecule in the ARS murine model. The study was performed with the structural analog in which the acetyl group in EC-18 is replaced with a hydroxyl group (yielding palmitic linoleic hydroxyl glycerol, PLH) in 20 Balb/c mice (10 female and 10 male) per group. Mice were irradiated with TBI of 6.11Gy at day 0 and 250 mg/kg of EC-18 or PLH were given daily in-life.
The purpose of this study was to assess whether extra calories of EC-18 contribute to the enhanced survival in mice after exposure to a whole-body sublethal dose of γ-radiation. The study was performed with the structural analog in which the acetyl group in EC-18 is replaced with a hydroxyl group (yielding PLH) in a total of 100 BALB/c mice ([…]; 20 animals per study group) aged at 11 weeks. Mice were irradiated with TBI of 6.11Gy at day 0 and the same dosage (250 mg/kg) of EC-18, PLH, or olive oil (vehicle control) were given daily in-life.

[2] = tested on: Balb/c mice, gamma-ray 6.11 Gy; assay: DAMP (HMGB1, S100A9) in blood of irradiated mice; assay type: in vivo, mouse; settings: 50 and 250 mg/kg oral 3 days from day 1
Protocol: To confirm the proposed mechanism of EC-18 in the in vivo model, female Balb/c mice were irradiated with a gamma-ray of 6.11 Gy on day 0. Then, EC-18 (50 and 250 mg/kg) or PBS was orally administered for 3 consecutive days from day 1 and the mice were sacrificed on the third day. […] While, from the EC-18-treated group, the amount of DAMP reduced compared to the control group, supporting the proposed mechanism of EC-18. Establishment of a Balb/C Mouse Model for ARS

P-gp = biological target: T2, P-gp (Homo sapiens, UniProt P08183); assay: Drug transporter inhibition, P-gp; assay type: in vitro ADME; settings: [3H]digoxin; transfected LLC-PK1 cells
T2 construct: expressed in transfected cells; host or cells: LLC-PK1
Protocol: as §2

[3] = tested on: BALB/c mice, 6.11 Gy γ-radiation TBI; assay: LD70/30 (6.11 Gy) ARS model: survival, life span, body weight, EC-18 10/50/250 mg/kg; assay type: in vivo, mouse; settings: for improvement of survival vs control group / ≥10% Body Weight Loss, % / ≥20% Body Weight Loss, % / Average life span / Median survival / No. of mice that survived/total / Survivability / Survival: 6.11 Gy; for No. of mice that survived/total / Survivability / Survival: 30 days
Protocol: For the experiments to determine survival rate following LD70/30 dose 6.11 Gy of γ-irradiation (TBI, ^60Co, 0.833Gy min-1), mice were grouped 20 (10 males and 10 females) per treatment cohorts; γ-radiation only cohort (positive control), γ-radiation with EC-18 10 mg/kg cohort, γ-radiation with EC-18 50 mg/kg cohort, and γ-radiation with EC-18 250 mg/kg cohort. EC-18 (Enzychem Lifesciences, Jaecheon, Republic of Korea) was suspended in PBS and orally administrated once a day, starting 1 day after irradiation. The positive control group was administrated PBS. The survival and body weight of the animals were recorded daily for 30 days.
All data are presented as the mean t standard deviation (SD). A paired Log rank (Mantel-Cox) test of survival curve was applied to estimate the significance on survival rate and to compare the duration of neutropenia between control and EC-18-treated cohorts. Average life span was calculated as the sum of the life span for all mice/total number of mice. For comparison of the statistical differences of more than two groups, one-way ANOVA test was used. All other statistical analyses were performed using a Student's paired t test and p values<0.05 were considered statistically significant.
The purpose of this study was to investigate the dose-effect of EC-18 on increasing the survival in mice after exposure to γ-radiation to the entire body. Eleven-week-old male and female BALB/c mice (10 females and 10 males; 20 animals per study group) were tested for the LD70/30 study. This study is consisted of 4 experimental groups; γ-radiation only group, and γ-radiation with EC-18 treatment groups at 10, 50, or 250 mg/kg.

[4] = EC-18 10 mg/kg oral daily from day 1, 10 mg/kg
[5] = EC-18 50 mg/kg oral daily from day 1, 50 mg/kg
[6] = EC-18 250 mg/kg oral daily from day 1, 250 mg/kg

T2 sequence (P08183 whole entry): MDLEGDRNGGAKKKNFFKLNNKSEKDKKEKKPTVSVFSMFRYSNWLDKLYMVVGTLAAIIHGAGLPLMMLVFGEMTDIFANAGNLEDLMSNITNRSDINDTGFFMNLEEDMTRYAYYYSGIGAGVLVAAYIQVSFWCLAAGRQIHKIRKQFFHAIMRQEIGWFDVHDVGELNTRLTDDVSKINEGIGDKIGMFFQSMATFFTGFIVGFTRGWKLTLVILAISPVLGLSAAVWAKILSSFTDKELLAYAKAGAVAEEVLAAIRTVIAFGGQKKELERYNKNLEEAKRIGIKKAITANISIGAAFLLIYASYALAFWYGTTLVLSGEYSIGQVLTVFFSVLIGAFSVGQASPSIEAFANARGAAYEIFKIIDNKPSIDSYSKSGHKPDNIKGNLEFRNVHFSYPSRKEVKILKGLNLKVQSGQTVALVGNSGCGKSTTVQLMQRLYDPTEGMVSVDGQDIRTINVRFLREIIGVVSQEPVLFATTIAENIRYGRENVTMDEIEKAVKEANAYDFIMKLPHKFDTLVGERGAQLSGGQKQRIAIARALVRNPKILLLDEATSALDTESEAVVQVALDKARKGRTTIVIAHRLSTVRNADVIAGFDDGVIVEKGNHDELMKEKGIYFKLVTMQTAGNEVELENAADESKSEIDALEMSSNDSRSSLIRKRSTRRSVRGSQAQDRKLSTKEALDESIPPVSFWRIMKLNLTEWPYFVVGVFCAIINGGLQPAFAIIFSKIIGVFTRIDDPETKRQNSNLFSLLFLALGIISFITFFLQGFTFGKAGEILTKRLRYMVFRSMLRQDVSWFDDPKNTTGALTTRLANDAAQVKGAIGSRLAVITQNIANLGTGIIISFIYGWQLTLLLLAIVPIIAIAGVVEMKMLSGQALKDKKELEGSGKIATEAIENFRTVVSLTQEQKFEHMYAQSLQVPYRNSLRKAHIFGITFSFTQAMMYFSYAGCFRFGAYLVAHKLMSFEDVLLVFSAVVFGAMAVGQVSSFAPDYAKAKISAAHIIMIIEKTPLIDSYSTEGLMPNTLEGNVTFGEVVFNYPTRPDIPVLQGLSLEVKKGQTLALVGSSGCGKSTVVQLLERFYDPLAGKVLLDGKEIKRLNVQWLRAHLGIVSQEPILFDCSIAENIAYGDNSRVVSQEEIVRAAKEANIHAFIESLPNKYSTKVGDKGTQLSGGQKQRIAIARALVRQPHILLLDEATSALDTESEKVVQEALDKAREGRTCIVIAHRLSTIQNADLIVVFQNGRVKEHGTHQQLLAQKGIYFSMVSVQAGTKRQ
T1 sequence (Q9Y6L6 whole entry, species assumed): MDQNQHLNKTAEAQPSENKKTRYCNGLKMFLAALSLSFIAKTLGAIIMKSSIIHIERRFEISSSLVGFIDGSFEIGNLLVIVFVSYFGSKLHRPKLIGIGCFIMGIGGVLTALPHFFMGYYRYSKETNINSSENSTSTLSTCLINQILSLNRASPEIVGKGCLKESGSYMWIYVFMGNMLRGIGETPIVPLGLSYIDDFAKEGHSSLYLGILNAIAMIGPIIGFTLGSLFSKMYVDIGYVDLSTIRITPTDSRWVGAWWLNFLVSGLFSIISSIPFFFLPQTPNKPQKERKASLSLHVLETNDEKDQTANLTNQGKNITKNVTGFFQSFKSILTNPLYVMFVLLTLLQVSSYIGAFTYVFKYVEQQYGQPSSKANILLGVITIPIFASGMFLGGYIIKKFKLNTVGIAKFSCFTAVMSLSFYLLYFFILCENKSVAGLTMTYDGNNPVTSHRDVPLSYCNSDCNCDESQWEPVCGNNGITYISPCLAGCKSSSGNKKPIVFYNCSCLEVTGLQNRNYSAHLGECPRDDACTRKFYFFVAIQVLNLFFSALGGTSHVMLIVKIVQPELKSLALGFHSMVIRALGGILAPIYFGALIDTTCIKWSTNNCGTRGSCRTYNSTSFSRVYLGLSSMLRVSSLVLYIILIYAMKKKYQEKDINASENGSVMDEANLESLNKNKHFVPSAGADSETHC

CCCCC/C=C\C/C=C\CCCCCCCC(=O)OC(COC(C)=O)COC(=O)CCCCCCCCCCCCCCC (stereo not drawn) [EC-18, 1-palmitoyl-2-linoleoyl-3-acetylglycerol]
Approximate lethal dose (Beagle dog): dose: >2000 mg/kg | mortality (Beagle dog; 0, 500, 1000, 1500, 2000 mg/kg): No dead animals | findings (Beagle dog; up to 2000 mg/kg): No specific findings | IC50 (OATP1B1): > 32 µM | Residual Concentration Relative to the Initial Dose After Reaction for 1 hr in Plasma [1]: >99% | T and B lymphocyte proliferation (SD rat): No changes in T and B | No. of mice that survived/total (Balb/c mice, 6.11 Gy TBI): 14/20 | Survival (Balb/c mice, 6.11 Gy TBI): 70% | Survival time of decedents, Mean ± SEM (Balb/c mice, 6.11 Gy TBI): 23.7 ± 1.4 days | Survival time of decedents, Median (Balb/c mice, 6.11 Gy TBI): 23.5 days | body weight loss induced by irradiation (Balb/c mice, 6.11 Gy TBI): effectively prevented and rapidly recovered weight loss | increase in survival vs control and PLH-treated group (Balb/c mice, 6.11 Gy TBI): 2 fold | survival compared to control group (Balb/c mice, 6.11 Gy TBI): significant increase | amount of DAMP (HMGB1, S100A9) in blood vs control group [2]: reduced | IC50 (P-gp): > 32 µM | radiation-induced weight loss vs positive control cohort ([3]; 250 mg/kg, from the 18th day after irradiation to the end): significantly reduced | improvement of survival vs control group ([3]; 50 mg/kg daily): 2 fold | improvement of survival vs control group ([3]; 250 mg/kg daily): 4 fold | ≥10% Body Weight Loss, % ([3]; EC-18 10 mg/kg): 85% | ≥20% Body Weight Loss, % ([3]; EC-18 10 mg/kg): 70% | Average life span [3, 4]: 22.3 days | Median survival [3, 4]: 17 days | No. of mice that survived/total [3, 4]: 4/20 | Survivability / Survival [3, 4]: 40% | ≥10% Body Weight Loss, % ([3]; EC-18 50 mg/kg): 55% | ≥20% Body Weight Loss, % ([3]; EC-18 50 mg/kg): 35% | Average life span [3, 5]: 19.3 days | Median survival [3, 5]: 20 days | No. of mice that survived/total [3, 5]: 8/20 | Survivability / Survival [3, 5]: 20% | ≥10% Body Weight Loss, % ([3]; EC-18 250 mg/kg): 15% | ≥20% Body Weight Loss, % ([3]; EC-18 250 mg/kg): 15% | Average life span [3, 6]: 17.9 days | Median survival [3, 6]: 30 days | No. of mice that survived/total [3, 6]: 16/20 | severe weight loss ([3]; two higher doses (50 and 250 mg/kg)): significantly prevented severe weight loss
